The subject of data set [1] is pentobarbitone sodium induced sleep. The data set is described as follows: Pentobarbitone sodium induced sleep in rats (sleeping time), analeptic action. Conditions: for ED50: after intraperitoneal 40 mg/kg pentobarbitone sodium, read-out: dose reducing "sleeping time" by 50%. Type of data set: in vivo, rat. Here is the method:
The effects of cunaniol on pentobarbitone sodium induced sleep in rats were compared with those of the analeptic bemegride. 5 mg/kg of cunaniol administered by intraperitoneal injection antagonises pentobarbitone while 7.4 mg/kg reduces "sleeping time" by 50% after intraperitoneal administration of a concentration of 40 mg/kg pentobarbitone sodium.

Data set [2] deals with mice. The data set is described as follows: Convulsant action in mice, intraperitoneal or oral. Type of data set: in vivo, mouse. Particulars: for similarity of convulsant actions to cunaniol: mice; for convulsant type in mice: intraperitoneally or orally.
Data set [3] relates to isolated rabbit heart. Kind of data set: Isolated rabbit heart perfusion.
Data set [4] deals with isolated rat phrenic nerve-diaphragm preparation. The data set is described as follows: Isolated rat phrenic nerve-diaphragm preparation. The source says: This is not reversed by neostigmine, i.e. is not curare-like.
Data set [5] has as its system guppies. The data set is described as follows: Toxicity test on guppies. Format: in vivo, guppy. The source says:
Cunaniol or its derivatives may also be used as an effective toxin. When tested on guppies at approximately 10^-6 M the poison gives rise to restless movement after two minutes, wild swimming, convulsion and coma with the body bent laterally after ten minutes.

The test system of data set [6] is central nervous system. The data set is described as follows: Central nervous system stimulant / convulsant activity compared with picrotoxin; antagonism by anticonvulsants. Format: in vivo. Conditions: for antagonism of cunaniol convulsant action: prior exposure to anticonvulsant. The source says:
(§1) Cunaniol is about ten times as active and ten times as rapid as the classic central nervous system stimulant picrotoxin. Convulsant action can be antagonised by prior exposure to anticonvulsants such as phenobarbitone or troxidone.

The nature of data set [7]: Solubility / lipophilicity. Format: physicochemical.
The test system of data set [8] is GABAergic system. Kind of data set: GABA (gamma-amino-butyric acid) antagonism.
Data set [9] deals with cardiovascular system. The data set is described as follows: Action on the cardiovascular system. Particulars: in vivo.
In data set [10] the test system is frog and rat isolated striated muscle preparations. The data set is described as follows: Frog and rat isolated striated muscle preparations, nerve stimulation. The source says: Experiments have been carried out on frog and rat isolated striated muscle preparations.
In data set [11] the test system is pithed rats. Kind of data set: Pressor response in pithed rats. Type of data set: in vivo, rat. Conditions: indicating a central action. How it is done: (§2) In intact anaesthetised rats, a sustained pressor response is produced by cunaniol administered by intravenous injection in doses of 0.5 mg or greater. In pithed rats the response to cunaniol was abolished, indicating a central action of the polyacetylene.

Data set [12] has as its system frogs. Kind of data set: Administration to frogs by injection or by topical application: convulsions and death. Format: in vivo, frog.
Excerpt: as §1

The conditions of data set [13]: for stability to air and light: exposure to light and air / oxygen.
Data set [14] concerns viviparous fish. The data set is described as follows: Release of fry from viviparous fish. Type of data set: in vivo. Particulars: due to effects on neuromuscular function.
The subject of data set [15] is frog spinal cord preparation. Kind of data set: Frog spinal cord preparation.
Excerpt: as §1

The subject of data set [16] is rat heart. Kind of data set: Rat heart contractability and heart block.
Data set [17] concerns Rats. The data set is described as follows: Convulsant action and lethality in rats, intraperitoneal injection. Type of data set: in vivo, rat. How it is done:
(§3) Rats are also sensitive to the convulsant actions of cunaniol, a convulsant dose being 5 mg/kg. A dosage of 2.24 mg/kg is a non-convulsant dose while 10 mg/kg causes death (intraperitoneal injection).

Experiment in data set [18]: as above
Format: in vivo, rat. Conditions: rat, in vivo, ip, read-out: non-convulsant dose. Here is the method:
as §3

In data set [19] the test system is intact anaesthetised rats. The data set is described as follows: Pressor response in intact anaesthetised rats. Format: in vivo, rat. Conditions: intravenous injection. Here is the method:
as §2

Data set [20] in a line: Potency of cis-cunaniol relative to the trans form. Particulars: cis form versus trans form; only about 1/60th.
Data set [21] in a line: Craig Distribution studies (Kp value). Type of data set: physicochemical. Conditions: obtained previously from Craig Distribution studies. Here is the method:
Crude syrup (190 g.) from the cold petrol extraction was dissolved in upper phase solvent (150 mls.). A steady state distribution program was used, based on a Kp value for cunaniol acetate of 0.54 obtained previously from Craig Distribution studies. The mixture was then loaded into the SSDM dosage pump.

In general, LD50 refers to the dose at which mortality reaches 50%. Higher therefore signals lower toxicity.

Read-outs that look alike come from different tables or passages of the source.

As to `CCC1(C)CC(=O)NC(=O)C1` [bemegride, reference compound], the ED50 in data set [1] (Rattus norvegicus, ip, rats) was found to be 45.7 mg/kg.
With picrotoxin, in data set [2], the “similarity of convulsant actions to cunaniol” value (shortened to “similarity”) is reported as “less closely”.
For `C=C(C)[C@H]1Cc2c(ccc3c2O[C@@H]2COc4cc(OC)c(OC)cc4[C@@H]2C3=O)O1` [rotenone], the toxicity to mice entry in data set [2] (metabolic toxin, comparison) was “highly toxic to mice”. Also, in data set [2], the “similarity” value is listed as “qualitatively different from the convulsants”. Further, the “reversibility in isolated rabbit heart” value in data set [3] (similar experiment with rotenone) was “did not exhibit the reversibility”.
Turning to `CN(C)C(=O)Oc1cccc([N+](C)(C)C)c1` [neostigmine, reference compound], the “reversal of neuromuscular block by neostigmine” value in data set [4] (block by cunaniol, i.e. not curare-like) is on record as “not reversed”.
As to `CCC1(c2ccccc2)C(=O)NC(=O)NC1=O` [phenobarbitone, reference compound], in data set [5] (in vivo), the “antagonism of responses of guppies to cunaniol” value is listed as “readily antagonises all responses”. For the same molecule, in data set [6], the “antagonism of cunaniol convulsant action” value is “antagonised”.
In the case of `C1CCc2nnnn2CC1` [leptazol], the “similarity” value in data set [2] is “mimicked closely”.
Turning to `CC#CC#CC#C/C=C/C1OCCCC1O` (stereo not shown), the solubility in water entry in data set [7] (water) was “low solubility in water”.
Take `CN1C(=O)OC(C)(C)C1=O` [troxidone, reference compound]: in data set [6], the “antagonism of cunaniol convulsant action” value was “antagonised”.
Take `CC#CC#CC#CC=CC1OCCCC1O` (stereo not shown) [cunaniol]: the “potency among the clonic convulsants” value in data set [2] (both routes of administration, compared with leptazol, picrotoxin) is reported as “most potent of the clonic convulsants”. For the same molecule, the “speed of onset of effects” value in [2] (compared with the other compounds) was “usually occurred more rapidly than with the other compounds”. The “convulsant type in mice” value in data set [2] was “clonic convulsant”. Besides, in [8], the GABA antagonist activity entry is listed as “GABA (gamma-amino-butyric acid) antagonist”. In addition, the “edibility of treated fish” value in data set [5] (almost immediately after treatment) was “edible almost immediately”. Further, the “subsequent symptoms after recovery” value in data set [5] (guppies removed into fresh water) is given as “no subsequent symptoms”. Further, the “time to complete recovery” value in data set [5] (guppies removed into fresh water after ten minutes at approximately 10^-6 M) is given as “approximately twenty”. Besides, in data set [5] (guppies, approximately 10^-6 M), the “time to restless movement” value was “two”; the “time to wild swimming, convulsion and coma with the body bent laterally” value is given as “ten”. Further, the “effect on the cardiovascular system” value in data set [9] was “transient depressant effect on the heart and a sustained pressor response”. Further, in data set [10], the “response to nerve stimulation” value was “increased response to nerve stimulation”. The “neuromuscular transmission at higher concentrations” value in [10] (higher concentrations) was “failure in neuromuscular transmission”. The “pressor response in pithed rats” value in data set [11] is reported as “abolished”. The effect in frogs result in data set [12] (by injection or by topical application) was “clonic convulsions and death”. In addition, the LD50 in [12] (frogs, intraperitoneal injection) is 12.8 mg/kg. For the same molecule, the “stability to air and light” value in data set [13] is listed as “readily decomposed to a brown material”. Besides, the “stability to air and light” value in [13] (listed as trans-cunaniol) was “unstable to oxygen and light”. Further, in [13] (solid under n-hexane, in the dark, in a refrigerator), the storage stability result is on record as “could be kept for years”. Moreover, the “release of fry from viviparous fish” value in [14] is listed as “highly effective”. In [7] (due to the polyacetylene chain), the lipophilicity result is “lipophilic”. Moreover, the “rapidity relative to picrotoxin” value in data set [6] (ten times as rapid as picrotoxin) was “about ten”. Moreover, the minimal effective concentration in [4] (Rattus norvegicus, direct action on the muscle, dose dependent, concentrations as low as, read-out: lowest concentration giving marked potentiation) was found to be 12.5 µg/mL. Further, the “concentration giving complete neuromuscular block” value in [4] (higher concentrations) came to 100 µg/mL. Also, the “reversal of block by washing” value in data set [4] (washing) was “readily reversed by washing”. In addition, in [4] (washing, more slowly removed than block), the “time for removal of potentiation by washing” value turned out to be 60 min. Besides, the “effects on frog spinal cord preparation” value in data set [15] is “resemble those of nicotine”. For the same molecule, the “effect on rat heart, larger doses” value in [16] (larger doses) is “complete heart block”. For the same molecule, the “reversibility of heart block” value in [16] (on washing out, no apparent impairment of function) is “rapidly reversed on washing out”. In data set [16] (small doses), the “effect on rat heart, small doses” value was “reduce contractability of the rat heart”. In data set [17], this molecule came in with a convulsant dose of 5 mg/kg and a dose causing death of 10 mg/kg. The NOAEL in [18] stood at 2.24 mg/kg. In addition, the minimal effective dose in [1] (Rattus norvegicus, ip, rats, intraperitoneal injection, read-out: dose antagonising pentobarbitone) came out at 5 mg/kg. Further, the ED50 in data set [1] (Rattus norvegicus, ip, rats) is 7.4 mg/kg. Also, the selectivity as analeptic result in data set [1] (compared with bemegride and leptazol) was “more selective anti-phenobarbitone action”. The “analeptic potency compared with bemegride” value in [1] (rats, 50% reduction of "sleeping time") is “more potent than bemegride”. Also, the “effect on isolated rabbit heart” value in data set [3] (perfusion, 100 μg/ml, preliminary experiments) is reported as “negative inotropic effect culminating in complete but reversible cardiac arrest in diastole”. For the same molecule, the “dose producing a sustained pressor response” value in data set [19] is recorded as not below 0.5 mg.
As to `CC#CC#CC#C/C=C/C1OCCCC1OC1C=C[C@H](OC(C)=O)[C@@H](COC(C)=O)O1` (stereo partly shown) [glycoside], the “liberation of cunaniol on hydrolysis” value in data set [13] (hydrolysis of the glycoside link) is given as “readily liberated on hydrolysis”.
For `CC#CC#CC#C/C=C\C1OCCCC1O` (stereo not drawn) [cis-cunaniol], in data set [20], the “potency relative to trans form” value is recorded as “about 1/60”.
As for `O=C1C[C@@H]2OCC=C3CN4CC[C@]56c7ccccc7N1[C@H]5[C@H]2[C@H]3C[C@H]46` [strychnine], in [2], the “convulsant type in mice” value is listed as “tonic convulsions” and the “similarity” value is recorded as “differed”.
On to `CC#CC#CC#CC=CC1OCCCC1OC(C)=O` (stereo not shown) [cunaniol acetate], for which the hydrolysis result in data set [13] (with sodium bicarbonate) is listed as “easily hydrolysed”. For the same molecule, the Kp value in data set [21] worked out at 0.54.

For the origin of these results see patent US5786385A, “Polyacetylenes” (priority 1993, dated 1998).
